Reference: patent US5712417A, “Inhibitors of retroviral proteases” (Abbott Laboratories, priority 1989, dated 1998)
Structures can show the parent of a compound that is named as a salt.

Molecular target: T1, HIV protease (Human immunodeficiency virus type 1 group M subtype B, UniProt P04585)
T1 construct: HIV protease consists of 99 amino acids and is evidently split off by itself from the pol polyprotein
Assay: Inhibition of HIV protease (cleavage of H-Ser-Phe-Asn-Phe-Opr-Gln-Ile-OH, HPLC)
Assay type: biochemical
Conditions: inhibitor concentration at which the cleavage rate is halved; pH 6, 2 hours; read-out: IC50
Excerpt: The compounds of the formula (I) according to the invention have enzyme-inhibiting properties. In particular, they inhibit the action of retroviral aspartyl proteases, such as that of HIV protease. Their enzyme-inhibitory action, which is in the milli- to subnanomolar range, can be determined as follows.
The heptapeptide: H-Ser-Phe-Asn-Phe-Pro-Gln-Ile-OH (P. L. Darke et al., Biophys. Res. Commun. 156 (1988) 297-303), inter alia, has hitherto been used as the substrate of HIV protease. HIV protease cleaves the substrate here between the second Phe and Pro.
General instructions for testing inhibitors of HIV proteases: a) Preparation of the substrate solution:
2 mg of H-Ser-Phe-Asn-Phe-Opr-Gln-Ile-OH (H-Opr-OH=5-oxaproline) are dissolved in 1 ml of MGTE15 buffer (use of ultrasound if necessary) and the solution is then filtered over a sterile filter (0.45 μm). […]
b) Preparation of the inhibitor solution:
2.5 times the desired molarity of the inhibitor per ml of solution are weighed out and dissolved in DMSO (10% of the final volume). The solution is diluted to the final volume with MGTE15 buffer and filtered over a sterile filter (0.45 μm). […]
c) Preparation of the protease solution:
5 μl of the HIV protease solution are diluted with MGTE25 buffer as required.
10 μl portions of the substrate solution are pipetted into test-tubes (16×100) with a screw cap. For the blank experiment, 10 μl of MGTE15 buffer containing 10% of DMSO are pipetted into a test-tube. 10 μl portions of the inhibitor solutions are added to the other test-tubes. The mixtures are incubated at 37° C. for 5-10 minutes and 5 μl of the protease solution are then added to each sample, After reaction at 35° C. for 2 hours, 10 or 20 μl (depending on the sensitivity of the HPLC apparatus) of each sample are then pipetted off, introduced into microvials and diluted with 120 μl of the HPLC mobile phase. […]
e) Conditions for the HPLC analysis:
20% (weight/weight) of aceto-
Column: Merck ®LICHROSORB RP18 (5 μm) 250×4
Column temperature: 42° C.
Detector parameters: 215 nm, 0.08 AUF, 18.2° C.
Analysis time: 11 minutes
Retention time of the substrate: 8.1 minutes
Retention time of the N-terminal tetrapeptide: 3.9 minutes
20 mM morpholinoethanesulfonic acid (MES)
15% (weight/volume) of glycerol
0.1% (volume/volume) of Triton ×100
1 mM phenylmethylsulfonyl fluoride (PMSF)
25% (weight/volume) of glycerol, additionally 1 mM dithiothreitol (DTT) The MES, EDTA, NaCl, DTT and PMSF are weighed into a conical flask and dissolved in a little water and the pH is brought to 6. The corresponding amount of glycerol is weighed into a measuring flask and ®Triton ×100 is pipetted in. The aqueous solution is transferred to the measuring flask and made up to the mark with water.
A 0.1M solution is prepared from orthophosphoric acid (FLUKA extra pure analytical grade). This solution is brought to exactly pH 2.5 with triethylamine (FLUKA extra pure analytical grade). The weight of the solution is determined and the corresponding amount of acetonitrile (fume cupboard) is weighed in. The mixture is mixed thoroughly and degassed with helium 5.0 for about 5 minutes.
Under the conditions chosen here, heptapeptides are separated from the N-terminal tetrapeptide formed during enzymatic cleavage. The percentage content of the tetrapeptide peak in respect of the sum of tetrapeptide+heptapeptide corresponds to the cleaving rate. The following IC50 values indicate the inhibitor concentration at which the cleavage rate is halved.

IC50 [nM]	Structure (SMILES)
1.8	CC[C@H](C)[C@H](NC(=O)[C@@H](N)Cc1ccccc1)C(=O)N[C@@H](Cc1ccccc1)[C@H](O)[C@@H](O)[C@H](Cc1ccccc1)NC(=O)[C@@H](NC(=O)[C@@H](N)Cc1ccccc1)[C@@H](C)CC [Example 65, N,N'-bis-<L-Phenylalanyl-L-isoleucyl>-2S,5S-diamino-1,6-diphenylhexane-3S,4S-diol dihydrochloride]
30	N[C@@H](Cc1ccccc1)C(=O)N[C@H](C(=O)N[C@@H](Cc1ccccc1)[C@@H](O)[C@H](O)[C@H](Cc1ccccc1)NC(=O)[C@@H](NC(=O)[C@@H](N)Cc1ccccc1)C1CCCCC1)C1CCCCC1 [Example 72, N,N'-bis-<L-Phenylalanyl-L-cyclohexylglycyl>-2S,5S-diamino-1,6-diphenylhexane-3R,4R-diol dihydrochloride]
1.7	CSCC[C@H](N)C(=O)N[C@H](C(=O)N[C@@H](Cc1ccccc1)[C@H](O)[C@@H](O)[C@H](Cc1ccccc1)NC(=O)[C@@H](NC(=O)[C@@H](N)CCSC)C(C)C)C(C)C [Example 74, N,N'-bis-<L-Methionyl-L-valyl>-2S,5S-diamino-1,6-diphenylhexane-3S,4S-dioldihydrochloride]
0.29	COc1ccc(C[C@H](N)C(=O)N[C@H](C(=O)N[C@@H](Cc2ccccc2)[C@H](O)[C@@H](O)[C@H](Cc2ccccc2)NC(=O)[C@@H](NC(=O)[C@@H](N)Cc2ccc(OC)cc2)C(C)C)C(C)C)cc1 [Example 76, N,N'-bis-<(O-Methyltyrosyl-L-valyl>-2S,5S-diamino-1,6-diphenylhexane-3S,4S-dioldihydrochloride]
28	CC(C)[C@H](NC(=O)[C@H](CCCCNC(=O)OCc1ccccc1)NC(=O)OC(C)(C)C)C(=O)N[C@@H](Cc1ccccc1)[C@@H](O)[C@H](O)[C@H](Cc1ccccc1)NC(=O)[C@@H](NC(=O)[C@H](CCCCNC(=O)OCc1ccccc1)NC(=O)OC(C)(C)C)C(C)C [Example 80]
9	CC(C)[C@H](NC(=O)[C@@H](N)CCC(=O)O)C(=O)N[C@@H](Cc1ccccc1)[C@H](O)[C@@H](O)[C@H](Cc1ccccc1)NC(=O)[C@@H](NC(=O)[C@@H](N)CCC(=O)O)C(C)C [Example 82, N,N,-bis-<L-Glutamyl-L-valyl>-2S,5S-diamino-1,6-diphenyl-hexane-3S,4S-dioldihydrochloride]
1.9	CC(C)[C@H](NC(=O)CN)C(=O)N[C@@H](Cc1ccccc1)[C@@H](O)[C@H](O)[C@H](Cc1ccccc1)NC(=O)[C@@H](NC(=O)CN)C(C)C [Example 85, N,N'-bis-<Glycyl-L-valyl>-2S,5S-diamino-1,6-diphenyl-hexane-3R,4R-dioldihydrochloride]
1.6	CC(C)C[C@H](N)C(=O)N[C@H](C(=O)N[C@@H](Cc1ccccc1)[C@H](O)[C@@H](O)[C@H](Cc1ccccc1)NC(=O)[C@@H](NC(=O)[C@@H](N)CC(C)C)C(C)C)C(C)C [Example 87, N,N'-bis-<L-Leucyl-L-valyl>-2S,5S-diamino-1,6-diphenyl-hexane-3S,4S-dioldihydrochloride]
1.8	CC(C)[C@H](NC(=O)[C@@H](N)CCS(C)(=O)=O)C(=O)N[C@@H](Cc1ccccc1)[C@@H](O)[C@H](O)[C@H](Cc1ccccc1)NC(=O)[C@@H](NC(=O)[C@@H](N)CCS(C)(=O)=O)C(C)C [Example 89, N,N'-bis-<L-(S-Dioxo)methionyl-L-valyl>-2S,5S-diamino-1,6-diphenylhexane-3R,4R-diol dihydrochloride]
1.3	CC(C)(C)[C@H](NC(=O)[C@H](Cc1ccccc1)CS(=O)(=O)C(C)(C)C)C(=O)N[C@@H](Cc1ccccc1)[C@@H](O)[C@H](O)[C@H](Cc1ccccc1)NC(=O)[C@@H](NC(=O)[C@H](Cc1ccccc1)CS(=O)(=O)C(C)(C)C)C(C)(C)C [Example 91, N,N'-bis-<(2S-(1,1-Dimethylethylsulfonylmethyl)-3-phenyl-propionyl)-L-tert.-butylglycyl>-2S, 5S-diamino-1,6-diphenylhexane-3R, 4R-diol]

Structure (SMILES)	IC50 [nM]
CSCC[C@H](NC(=O)OC(C)(C)C)C(=O)N[C@H](C(=O)N[C@@H](Cc1ccccc1)[C@H](O)[C@@H](O)[C@H](Cc1ccccc1)NC(=O)[C@@H](NC(=O)[C@H](CCSC)NC(=O)OC(C)(C)C)C(C)C)C(C)C [Example 75, N,N'-bis-<tert.-Butoxycarbonyl-L-methionyl-L-valyl>-2S,5S-diamino-1,6-diphenylhexane-3S,4S-diol]	19
COc1ccc(C[C@H](NC(=O)OC(C)(C)C)C(=O)N[C@H](C(=O)N[C@@H](Cc2ccccc2)[C@H](O)[C@@H](O)[C@H](Cc2ccccc2)NC(=O)[C@@H](NC(=O)[C@H](Cc2ccc(OC)cc2)NC(=O)OC(C)(C)C)C(C)C)C(C)C)cc1 [Example 77, N,N'-bis-<tert.-Butoxycarbonyl-(O-methyltyrosyl)-L-valyl>-2S,5S-diamino-1,6-diphenylhexane-3S,4S-diol]	9.2
CC(C)[C@H](NC(=O)[C@@H](N)Cc1ccc(O)cc1)C(=O)N[C@@H](Cc1ccccc1)[C@H](O)[C@@H](O)[C@H](Cc1ccccc1)NC(=O)[C@@H](NC(=O)[C@@H](N)Cc1ccc(O)cc1)C(C)C [Example 78, N,N'-bis-<L-Tyrosyl-L-valyl>-2S,5S-diamino-1,6-diphenyl-hexane-3S,4S-dioldihydrochloride]	1.8
CC(C)[C@H](NC(=O)[C@H](CCC(=O)O)NC(=O)OC(C)(C)C)C(=O)N[C@@H](Cc1ccccc1)[C@H](O)[C@@H](O)[C@H](Cc1ccccc1)NC(=O)[C@@H](NC(=O)[C@H](CCC(=O)O)NC(=O)OC(C)(C)C)C(C)C [Example 83, N,N,-bis-<tert.-Butoxycarbonyl-L-glutamyl-L-valyl>-2S,5S-diamino-1,6-diphenylhexane-3S,4S-diol]	10
CC(C)[C@H](NC(=O)[C@H](CCC(=O)OCc1ccccc1)NC(=O)OC(C)(C)C)C(=O)N[C@@H](Cc1ccccc1)[C@H](O)[C@@H](O)[C@H](Cc1ccccc1)NC(=O)[C@@H](NC(=O)[C@H](CCC(=O)OCc1ccccc1)NC(=O)OC(C)(C)C)C(C)C [Example 84, N,N,-bis-<(N-tert.-Butoxycarbonyl-O-benzyl-L-glutamyl)-L-valyl>-2S,5S-diamino-1,6-diphenylhexane-3S,4S-diol]	110
CC(C)[C@H](NC(=O)CNC(=O)OC(C)(C)C)C(=O)N[C@@H](Cc1ccccc1)[C@@H](O)[C@H](O)[C@H](Cc1ccccc1)NC(=O)[C@@H](NC(=O)CNC(=O)OC(C)(C)C)C(C)C [Example 86, N,N'-bis-<tert.-Butoxycarbonylglycyl-L-valyl>-2S,5S-diamino-1,6-diphenylhexane-3R,4R-diol]	2.2
CC(C)C[C@H](NC(=O)OC(C)(C)C)C(=O)N[C@H](C(=O)N[C@@H](Cc1ccccc1)[C@H](O)[C@@H](O)[C@H](Cc1ccccc1)NC(=O)[C@@H](NC(=O)[C@H](CC(C)C)NC(=O)OC(C)(C)C)C(C)C)C(C)C [Example 88, N,N'-bis-<tert.-Butoxycarbonyl-L-leucyl-L-valyl>-2S,5S-diamino-1,6-diphenylhexane-3S,4S-diol]	1000
CC(C)[C@H](NC(=O)[C@H](CCS(C)(=O)=O)NC(=O)OC(C)(C)C)C(=O)N[C@@H](Cc1ccccc1)[C@@H](O)[C@H](O)[C@H](Cc1ccccc1)NC(=O)[C@@H](NC(=O)[C@H](CCS(C)(=O)=O)NC(=O)OC(C)(C)C)C(C)C [Example 90, N,N'-bis-<tert.-Butoxycarbonyl-L-(S-dioxo)methionyl-L-valyl>-2S,SS-diamino-1,6-diphenylhexane-3R,4R-diol]	2.2
